# Values of other authors as cited in publication PMC4232510, “Identification of Functionally Important Residues of the Rat P2X4 Receptor by Alanine Scanning Mutagenesis of the Dorsal Fin and Left Flipper Domains” (PLoS ONE, 2014).
# What was measured:
# Conditions in all cases: cited from earlier work
# P2X3R D266A = system: P2X3R D266A; set-up: method as in PMID 15475563; key: n.f.: non-functional mutants; ↑: mutant with significant increased EC50 in comparison to WT (values represent fold increase); ≈: close to WT receptor; D: affected time-constant of the desensitizing current response
# P2X3R S267A = system: P2X3R S267A; set-up: method as in PMID 16120774; key: n.f.: non-functional mutants; ↑: mutant with significant increased EC50 in comparison to WT (values represent fold increase); ≈: close to WT receptor; D: affected time-constant of the desensitizing current response
# P2X3R S269A = system: P2X3R S269A; set-up: method as in PMID 16226373; key: n.f.: non-functional mutants; ↑: mutant with significant increased EC50 in comparison to WT (values represent fold increase); ≈: close to WT receptor; D: affected time-constant of the desensitizing current response
# P2X1R G288A = system: P2X1R G288A; set-up: key: n.f.: non-functional mutants; ↑: mutant with significant increased EC50 in comparison to WT (values represent fold increase); ≈: close to WT receptor; D: affected time-constant of the desensitizing current response
# P2X1R G288C = system: P2X1R G288C; set-up: method as in PMID 17428985
# P2X2R N288A = system: P2X2R N288A; set-up: method as in PMID 10940304
# P2X3R N279A = system: P2X3R N279A; set-up: method as in PMID 21098022
structure (smiles),measurement,setting,value
Nc1ncnc2c1ncn2[C@@H]1O[C@H](COP(=O)(O)OP(=O)(O)OP(=O)(O)O)[C@@H](O)[C@H]1O [ATP],change in desensitization,P2X3R D266A,D266A: D[53]
same,change in EC50 for ATP,P2X3R S267A,S267A: ≈[59]
same,change in desensitization,P2X3R S269A,S269A: D[54]
same,change in EC50 for ATP,P2X1R G288A,≈
same,fold increase of EC50 for ATP in comparison to WT,P2X1R G288C,10 x
same,fold increase of EC50 for ATP in comparison to WT,P2X2R N288A,N288A: ↑>100x[6]
same,fold increase of EC50 for ATP in comparison to WT,P2X3R N279A,N279A: ↑20x[4]
